The term IC50 denotes the point on the concentration scale where inhibition reaches its midpoint.

These results are taken from patent publication US20150246938A1, “NOVEL OLEFIN DERIVATIVE” (SHIONOGI & CO., LTD., priority 2011, published 2015).

T1 sequence (O00763 27-2458): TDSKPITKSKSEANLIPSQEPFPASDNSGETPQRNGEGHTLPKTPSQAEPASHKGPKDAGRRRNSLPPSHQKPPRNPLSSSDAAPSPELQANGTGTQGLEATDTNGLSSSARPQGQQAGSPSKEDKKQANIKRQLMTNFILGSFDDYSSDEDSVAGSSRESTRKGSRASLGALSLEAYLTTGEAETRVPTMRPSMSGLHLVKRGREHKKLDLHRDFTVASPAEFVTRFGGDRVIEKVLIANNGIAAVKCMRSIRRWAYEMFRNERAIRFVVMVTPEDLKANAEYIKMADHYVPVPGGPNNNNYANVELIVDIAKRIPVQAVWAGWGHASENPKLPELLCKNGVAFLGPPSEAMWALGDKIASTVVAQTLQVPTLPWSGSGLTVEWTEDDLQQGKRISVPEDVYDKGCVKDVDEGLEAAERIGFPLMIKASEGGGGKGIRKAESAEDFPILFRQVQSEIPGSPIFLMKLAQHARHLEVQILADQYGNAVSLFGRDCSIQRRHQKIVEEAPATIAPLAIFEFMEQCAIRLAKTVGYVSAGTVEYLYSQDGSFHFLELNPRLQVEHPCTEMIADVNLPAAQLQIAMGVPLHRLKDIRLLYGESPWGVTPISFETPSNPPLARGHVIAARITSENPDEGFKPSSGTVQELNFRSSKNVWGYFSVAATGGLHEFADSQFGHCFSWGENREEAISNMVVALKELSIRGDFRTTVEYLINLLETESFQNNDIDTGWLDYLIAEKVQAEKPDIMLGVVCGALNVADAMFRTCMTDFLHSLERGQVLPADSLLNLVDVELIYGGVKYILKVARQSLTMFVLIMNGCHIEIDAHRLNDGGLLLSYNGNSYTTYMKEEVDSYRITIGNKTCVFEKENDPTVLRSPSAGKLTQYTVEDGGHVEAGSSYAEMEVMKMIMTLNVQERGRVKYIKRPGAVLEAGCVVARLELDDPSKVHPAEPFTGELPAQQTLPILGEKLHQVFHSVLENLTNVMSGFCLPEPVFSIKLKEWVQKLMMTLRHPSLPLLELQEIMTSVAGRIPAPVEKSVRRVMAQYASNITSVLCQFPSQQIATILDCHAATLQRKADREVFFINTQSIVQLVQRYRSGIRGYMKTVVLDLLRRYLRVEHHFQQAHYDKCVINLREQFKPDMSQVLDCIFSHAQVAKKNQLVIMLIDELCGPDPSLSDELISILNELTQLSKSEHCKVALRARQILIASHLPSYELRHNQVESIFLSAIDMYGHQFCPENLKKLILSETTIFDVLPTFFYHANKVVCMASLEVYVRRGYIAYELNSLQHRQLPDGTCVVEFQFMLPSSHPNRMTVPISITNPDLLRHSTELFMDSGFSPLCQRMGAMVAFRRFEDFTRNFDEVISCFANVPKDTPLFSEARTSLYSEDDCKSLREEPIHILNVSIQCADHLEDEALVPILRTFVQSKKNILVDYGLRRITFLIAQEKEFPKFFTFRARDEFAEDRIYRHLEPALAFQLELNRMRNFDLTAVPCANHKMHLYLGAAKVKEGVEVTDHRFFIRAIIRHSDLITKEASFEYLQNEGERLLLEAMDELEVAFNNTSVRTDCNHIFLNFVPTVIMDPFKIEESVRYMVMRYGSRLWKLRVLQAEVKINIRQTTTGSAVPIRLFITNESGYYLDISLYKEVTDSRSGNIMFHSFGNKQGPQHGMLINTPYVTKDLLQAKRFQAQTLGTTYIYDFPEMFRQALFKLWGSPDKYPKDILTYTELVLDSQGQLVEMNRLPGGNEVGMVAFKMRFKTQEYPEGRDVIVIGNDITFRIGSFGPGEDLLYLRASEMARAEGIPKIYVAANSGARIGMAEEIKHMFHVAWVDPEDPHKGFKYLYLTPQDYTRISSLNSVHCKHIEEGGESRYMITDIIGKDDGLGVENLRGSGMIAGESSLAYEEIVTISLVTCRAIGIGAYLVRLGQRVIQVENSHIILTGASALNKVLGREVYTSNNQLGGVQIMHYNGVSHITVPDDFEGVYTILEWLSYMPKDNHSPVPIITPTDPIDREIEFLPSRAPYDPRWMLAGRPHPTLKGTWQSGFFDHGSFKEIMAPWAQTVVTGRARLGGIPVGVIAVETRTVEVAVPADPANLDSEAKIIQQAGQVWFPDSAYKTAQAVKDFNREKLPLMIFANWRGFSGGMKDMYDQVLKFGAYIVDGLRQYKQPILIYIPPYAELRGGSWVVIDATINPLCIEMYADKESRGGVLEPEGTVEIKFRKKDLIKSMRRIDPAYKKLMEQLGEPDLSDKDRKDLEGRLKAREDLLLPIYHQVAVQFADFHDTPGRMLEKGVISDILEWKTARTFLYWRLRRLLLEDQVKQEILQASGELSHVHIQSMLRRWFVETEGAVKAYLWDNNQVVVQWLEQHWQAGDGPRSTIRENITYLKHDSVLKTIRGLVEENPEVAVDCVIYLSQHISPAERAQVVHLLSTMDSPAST

One experiment concerns the target T1, recombinant human ACC2 (Homo sapiens, UniProt O00763).
T1 construct: a cDNA encoding human ACC2 (27-2458) was cloned from human kidney cDNA library (Clontech); His-tag (N); made in house; host or cells: Sf-9 insect cells (Bac-to-Bac baculovirus)
Kind of experiment: Measurement of inhibitory activity on human ACC2 (MALDI-TOF MS, acetyl CoA to malonyl CoA conversion).
Settings: not given
It is filed as biochemical.
As to `CCCc1ccc(Oc2ccc(/C=C/[C@H](C)NC(=O)CNC(C)=O)cn2)c(Cl)c1` [Compound I-392], the IC50 is 970 nM.

Regarding `CC(=O)N[C@@H](C)/C=C/c1ccc(Oc2cc3c(cc2Cl)CCC3)nc1` [Compound I-426], the IC50 was 26 nM. Same read-out and setting: to `CC(=O)N[C@@H](C)/C=C/c1ccc(Oc2ccc(CC3CC3)cc2Cl)nc1` [Compound I-380] belongs 22 nM; to `CC(=O)N[C@@H](C)/C=C/c1ccc(Oc2ccc(N3CCCCC3)cc2Cl)nc1` [Compound I-383], 29 nM. Regarding `CCCc1ccc(Oc2ncc(/C=C/[C@H](C)NC(C)=O)s2)c(Cl)c1` [Compound I-411], the IC50 was determined as 77 nM. In the case of `CC(=O)N[C@@H](C)/C=C/c1cnc(Oc2ccc(C(C)(C)C(F)(F)F)cc2Cl)nc1` [Compound I-427], the IC50 came to 200 nM. The same measure, in the same setting: the same measure for `CCC(F)(F)c1ccc(Oc2ccc(/C=C/[C@H](C)NC(C)=O)cn2)c(Cl)c1` [Compound I-389]: 24 nM. On to `CCCc1ccc(Oc2ccc(/C=C/[C@H](C)NC(C)=O)cn2)c(C#N)c1` [Compound I-403], for which the half-inhibitory concentration (IC50) amounted to 450 nM. Take `CC(=O)N[C@@H](C)/C=C/c1ccc(Oc2ccc3c(c2)CCO3)nc1` [Compound I-429]: the IC50 was 50 nM. On to `CC(=O)N[C@@H](C)/C=C/c1ccc(Oc2ccc(-c3nccs3)cc2Cl)nc1` [Compound I-416], for which the 50% inhibitory concentration (IC50) amounted to 170 nM.

The experiment is the same for the next values; noted with them: inhibition activity on human ACC2, Table 79; read-out: IC50.
Consider `C[C@@H](/C=C/c1cnc(Oc2ccc(OCC3CC3)cc2Cl)s1)NC(=O)C1(C)CC1` [Compound I-83], for which the concentration for half-maximal inhibition (IC50) came out at 48 nM. Take `C[C@@H](/C=C/c1cnc(Oc2ccc(OCC3CC3)cc2Cl)s1)NC(=O)C1CCOCC1` [Compound I-84]: the IC50 was determined as 460 nM. `C[C@@H](/C=C/c1cnc(Oc2ccc(OCC3CC3)cc2Cl)s1)NC(=O)CCCCCCNC(=O)OC(C)(C)C` [Compound I-106]: the IC50 is 440 nM.

On to `CC(=O)N[C@@H](C)/C=C/c1ccc(Oc2ccc(OCC3CC3)cc2Cl)nn1` [Compound I-56], for which the concentration for half-maximal inhibition (IC50) was 310 nM.

On to `CC(=O)N[C@@H](C)/C=C/c1cnc(Oc2cccc(OCC3CC3)c2Cl)s1` [Compound I-7], for which the IC50 came to 31 nM. On to `CC(=O)N[C@@H](C)/C=C/c1cnc(Oc2cccc(OC(C)C)c2C)s1` [Compound I-9], for which the 50% inhibitory concentration (IC50) turned out to be 82 nM.

Regarding `CC(=O)N[C@@H](C)/C=C/c1ccc(Oc2cccc(OC(C)C)c2)nc1` [Compound I-49], the 50% inhibitory concentration (IC50) is 72 nM.

For the compound `C[C@@H](/C=C/c1cnc(Oc2ccc(OCC3CC3)cc2Cl)s1)NC(=O)CC#N` [Compound I-73], the IC50 is 53 nM.

Regarding `COC(=O)CCCC(=O)N[C@@H](C)/C=C/c1cnc(Oc2ccc(OCC3CC3)cc2Cl)s1` [Compound I-94], the half-maximal inhibitory concentration (IC50) was found to be 140 nM. Consider `CC(C)S(=O)(=O)NCCCCC(=O)N[C@@H](C)/C=C/c1cnc(Oc2ccc(OCC3CC3)cc2Cl)s1` [Compound I-117], for which the IC50 turned out to be 38 nM. The same measure, in the same setting: to `CC(=O)N[C@@H](C)/C=C/c1ccc(Oc2ccc(NCC3CC3)c(Cl)c2)nc1` [Compound I-24] belongs 4.4 nM; to `C[C@@H](/C=C/c1cnc(Oc2ccc(OCC3CC3)cc2Cl)s1)NC(=O)C1(C(N)=O)CC1` [Compound I-74], 57 nM.

Staying with this experiment, now noted: inhibition activity on human ACC2, Table 80; read-out: IC50.
With `CCCOc1ccc(Oc2ncc(/C=C/[C@H](C)NC(=O)c3ccnc(C(=O)OCC)c3)s2)c(Cl)c1` [Compound I-168], the half-maximal inhibitory concentration (IC50) was 22 nM. On to `CCOC(=O)CCNc1cc(C(=O)N[C@@H](C)/C=C/c2cnc(Oc3ccc(OCC4CC4)cc3Cl)s2)ccn1` [Compound I-247], for which the IC50 was 430 nM. For the compound `C[C@@H](/C=C/c1cnn(Cc2ccc(OCC3CC3)cc2Cl)c1)NC(=O)C1CC1` [Compound I-172], the concentration for half-maximal inhibition (IC50) was 600 nM. For `CCOc1ccc(Oc2ccc(/C=C/[C@H](C)NC(=O)C(F)F)cn2)c(Cl)c1` [Compound I-179], the IC50 is 42 nM. `C[C@@H](/C=C/c1cnc(Oc2ccc(OCC3CC3)cc2Cl)s1)NC(=O)c1ccnc(NCCCN2CCCC2=O)c1` [Compound I-246]: the IC50 is 73 nM.

Turning to `COc1cccc(C(=O)N[C@@H](C)/C=C/c2cnc(Oc3ccc(OCC4CC4)cc3Cl)s2)c1` [Compound I-156], the IC50 was 930 nM.

Take `C[C@@H](/C=C/c1cnc(Oc2ccc(OCC3CC3)cc2Cl)s1)NC(=O)c1ccnc(CO)c1` [Compound I-237]: the IC50 was determined as 87 nM.

As to `C[C@@H](/C=C/c1cnn(Cc2ccc(OCC3CC3)cc2Cl)c1)NC(=O)c1ccnc(C(=O)NC(C)(C)C)c1` [Compound I-236], the half-maximal inhibitory concentration (IC50) was 15 nM. Regarding `C[C@@H](/C=C/c1cnc(Oc2ccc(OCC3CC3)cc2Cl)s1)NC(=O)c1ccnc(C(=O)NC2CCOCC2)c1` [Compound I-209], the 50% inhibitory concentration (IC50) came to 4.5 nM.

Staying with this experiment, now noted: inhibition activity on human ACC2, Table 82; read-out: IC50.
`CC(=O)N[C@@H](C)/C=C/c1ccc(Oc2ccc(-c3cnoc3)cc2Cl)nc1` [Compound I-349]: the half-inhibitory concentration (IC50) turned out to be 6600 nM. As for `CCNC(=O)c1cc(C(=O)N[C@@H](C)/C=C/c2cnn(Cc3c(Cl)cc(OCC4CC4)cc3Cl)c2)ccn1` [Compound I-321], the 50% inhibitory concentration (IC50) was determined as 29 nM. `CC(=O)N[C@@H](C)/C=C/c1ccc(Oc2ccc(-c3ccccn3)cc2Cl)nc1` [Compound I-325]: the IC50 came out at 120 nM.

Turning to `CC(=O)N[C@@H](C)/C=C/c1ccc(Oc2ccc(-c3ccccc3C#N)cc2Cl)nc1` [Compound I-347], the half-maximal inhibitory concentration (IC50) was 300 nM. In the case of `CC(=O)N[C@@H](C)/C=C/c1ccc(Oc2ccc(C3=CCC4(CC3)CC4)cc2Cl)nc1` [Compound I-355], the half-maximal inhibitory concentration (IC50) was found to be 19 nM. `CO/N=C(\C)c1ccc(Oc2ccc(/C=C/[C@H](C)NC(C)=O)cn2)c(Cl)c1` [Compound I-333]: the IC50 is 180 nM. Consider `CC(=O)N[C@@H](C)/C=C/c1ccc(Oc2ccc(Cc3ccccc3)cc2Cl)nc1` [Compound I-358], for which the 50% inhibitory concentration (IC50) worked out at 27 nM. With `CCNC(=O)c1cc(C(=O)N[C@@H](C)/C=C/c2cnn(Cc3c(F)cc(OCC4CC4)cc3F)c2)ccn1` [Compound I-319], the IC50 is 51 nM. Same read-out and setting: the same measure for `CC(=O)N[C@@H](C)/C=C/c1cnc(Oc2ccc(OCC3CC3)cc2Cl)c(Cl)c1` [Compound I-335]: 15 nM.

Turning to `CC(=O)N[C@@H](C)/C=C/c1ccc(Oc2ccc(-c3ccc(C#N)cc3)cc2Cl)nc1` [Compound I-345], the half-inhibitory concentration (IC50) worked out at 52 nM. The same measure, in the same setting: to `CC(=O)NC(C)/C(F)=C/c1ccc(Oc2ccc(OCC3CC3)cc2Cl)nc1` (centres unmarked) [Compound I-366] belongs 15 nM; to `CCCc1cc(C)c(Oc2ccc(/C=C/[C@H](C)NC(C)=O)cn2)cn1` [Compound I-323], 960 nM. Still for that read-out and setting: the same measure for `CCCc1cc(F)c(Oc2ccc(/C=C/[C@H](C)NC(C)=O)cn2)c(Cl)c1` [Compound I-372]: 33 nM; for `CC(=O)N[C@@H](C)/C=C/c1ccc(Oc2ccc(CC(C)(C)C)cc2Cl)nc1` [Compound I-371]: 60 nM.

The experiment is the same for the next values; noted with them: inhibition activity on human ACC2, Table 84; read-out: IC50.
For the compound `CSc1ncc(Oc2ccc(/C=C/[C@H](C)NC(C)=O)cn2)cn1` [Compound I-484], the IC50 worked out at 160 nM.

As for `CC(=O)N[C@@H](C)/C=C/c1ccc(Oc2ccc3nc(C)sc3c2C#N)nc1` [Compound I-509], the half-inhibitory concentration (IC50) was 23 nM.

For `CC(=O)N[C@@H](C)/C=C/c1ccc(Oc2ccc(OCc3ccccc3)cc2Cl)nc1` [Compound I-450], the IC50 turned out to be 60 nM.

Regarding `CCOc1ccc(Oc2ccc(/C=C(\F)[C@H](C)NC(C)=O)cn2)c(Cl)c1` [Compound I-471], the IC50 amounted to 16 nM. `CCCc1ccc(Oc2ncc(/C=C/[C@H](C)NC(C)=O)cn2)c(Cl)c1` [Compound I-432]: the 50% inhibitory concentration (IC50) worked out at 520 nM. On the same count and under the same terms, to `CC(=O)N[C@@H](C)/C=C/c1ccc(Oc2ccc(OCC3CC3)cc2Cl)cn1` [Compound I-490] belongs 42 nM; to `CCC(F)(F)c1ccc(Oc2cnc(/C=C/[C@H](C)NC(C)=O)cn2)c(Cl)c1` [Compound I-473], 39 nM; to `CC(=O)N[C@@H](C)/C=C/c1ccc(Oc2ccc(Oc3ccccc3)cc2Cl)nc1` [Compound I-462], 19 nM.

In the case of `C/C=C(\CC)c1ccc(Oc2ccc(/C=C/[C@H](C)NC(C)=O)cn2)c(Cl)c1` [Compound I-476], the concentration for half-maximal inhibition (IC50) amounted to 240 nM.

In the case of `CCOc1ccc(Oc2ccc(/C=C/[C@H](C)NC(C)=O)nc2)c(Cl)c1` [Compound I-489], the half-inhibitory concentration (IC50) was determined as 550 nM.

Take `CCCc1cc(Oc2ccc(/C=C/[C@H](C)NC(C)=O)cn2)ccc1Cl` [Compound I-485]: the IC50 is 130 nM. `CCN1CCc2cc(Oc3ccc(/C=C/[C@H](C)NC(C)=O)cn3)ccc2C1=O` [Compound I-480]: the IC50 was 520 nM. Same read-out and setting: to `CCOc1ccc(Oc2ccc(/C=C/C(C)CNC(C)=O)cn2)c(Cl)c1` (centres unmarked) [I’-1] belongs 560 nM; to `CC(=O)N[C@@H](C)/C=C/c1ccc(Oc2ccc(C3=CCC4(CC3)CC4)cc2Cl)cn1` [Compound I-513], 27 nM; to `CCCc1cccc(Oc2ccc(/C=C/[C@H](C)NC(C)=O)cn2)c1Cl` [Compound I-469], 36 nM.

The same experiment, now with this note: inhibition activity on human ACC2, untitled table (Table 81); read-out: IC50.
In the case of `CC(=O)N[C@@H](C)/C=C/c1ccc(Oc2ccc(-c3ccccc3)cc2Cl)nc1` [Compound I-267], the IC50 was determined as 44 nM.

Turning to `CC(=O)N[C@@H](C)/C=C/c1ccc(Oc2ccc(C3CC3)cc2Cl)nc1` [Compound I-266], the IC50 came to 26 nM. Consider `CC(=O)NC(C)/C(C)=C/c1ccc(Oc2ccc(OCC3CC3)cc2Cl)nc1` (centres unmarked) [Compound I-282], for which the IC50 is 13 nM.

In the case of `COc1cc(Oc2ccc(/C=C/[C@H](C)NC(C)=O)cn2)ccc1F` [Compound I-259], the 50% inhibitory concentration (IC50) was 400 nM. The same measure, in the same setting: the same measure for `CC(=O)N[C@@H](C)/C=C/c1ccc(Oc2ccc(C3CC3)c(Cl)c2)nc1` [Compound I-298]: 58 nM; for `CC(=O)N[C@@H](C)/C=C/c1ccc(Oc2ccc3c(c2)OCC(=O)N3CC2CC2)nc1` [Compound I-260]: 150 nM.

Take `CC/C(=C\c1ccc(Oc2cnc(OCC3CC3)cc2Cl)nc1)C(C)NC(C)=O` (centres unmarked) [Compound I-295]: the IC50 is 2800 nM. Consider `CC(=O)N[C@@H](C)/C=C/c1cnn(Cc2cc(F)c(OCC3CC3)cc2F)c1` [Compound I-292], for which the IC50 was determined as 1600 nM.
